For data set [1], the target named is CB1. Conditions: known CB1 ligands; ref 55 (rimonabant), 56 (nabilone), 17 (bazedoxifene); cited from earlier work.
Data set [2] deals with T1, human CB1 receptor (Homo sapiens, UniProt P21554). Description: biochemical. Here is the method:
Ten compound concentrations equally spaced on a log scale (10^–3 to 10^–9 M) were incubated in triplicate with membrane preparations from CHO-K1 cells expressing the human CB1 receptor (5 μg per well) (Perkin Elmer, cat. no. ES-110-M400UA) in an assay buffer containing 50 mM Tris-HCl, pH = 7.4, 1 mM EGTA, 3 mM MgCl2, 100 mM NaCl and 30 μM GDP) in the presence of 0.08 nM [^35S]GTPγS (specific activity: 1250 Ci/mmole, Perkin Elmer). Non-specific binding was determined with 100 μM of unlabeled GTPγS. […] The final DMSO concentration in the assay was 5%. The reaction mixture was incubated for 90 min. at 30°C . Next, the samples were deposited under vacuum with the FilterMate Harvester® (Perkin Elmer, USA) onto Unifilter® GF/B Plates (Perkin Elmer, USA) presoaked with wash buffer (50 mM Tris-HCl, pH = 7.4). The samples were then rapidly washed with 2 ml of wash buffer. Filter plates were dried for 30 min. at 50 °C and 40 μL of MicroScint PS (Perkin Elmer, USA) scintillation fluid was added to each well. Radioactivity was counted in a Trilux MicroBeta^2 counter (Perkin Elmer, USA). Data were analyzed with GraphPad Prism 5.0 software. Curves were fitted with three-parameter non-linear regression model.

Details of data set [3]: method as in MedChemExpress product data sheet. The conditions noted are these: ref MedChemExpress product data sheet, cited from earlier work.
Data set [4] concerns the target T1, human CB1 receptor. The data set is classed as biochemical. Conditions: in words.
Data set [5] has as its target T1, human CB1 receptor. As to the kind of experiment: biochemical. Format: binding. Details: purchased Merck HTS019M; host or cells: Chem-1 cells. An excerpt:
Compounds selected for the in vitro binding assay from the first iteration of VS were purchased via MolPort, SIA, Riga, Latvia and Biopurify Phytochemicals Ltd., Chengdu, China. Compounds from the second iteration were purchased from MolPort, SIA, Riga, Latvia and Chemspace, SIA, Riga, Latvia (Supporting Information S3). […] Membranes from cells overexpressing the human CB1 receptor (ChemiScreen CB1 Cannabinoid Receptor Membrane Preparation, cat. no. HTS019M) as well as MgCl2, CaCl2, Trizma Base, NaCl, polyethylenimine (PEI) and dimethyl sulfoxide (DMSO) were purchased from Merck (USA). Bovine serum albumin (BSA) was obtained from Pol-Aura (Poland).
Compounds were dissolved in 50% DMSO and added to the reaction mixture at 10 concentrations equally spaced on a log scale (10^–10 to 10^–4.5 M). The final DMSO concentration was 5%. […] The reaction mixture (500 μL) was incubated for 1.5 h at 30°C . Before harvesting, Whatman GF/B Filter Paper (Brandel, USA) was presoaked with 0.33% PEI buffer for 30 min. and then washed with 2 ml of 50 mM Tris-HCl buffer (pH = 7.4) and 0.5% BSA to minimize non-specific binding. The reaction was terminated by depositing the samples onto GF/B filter paper with the Brandel M-24 Cell Harvester (Brandel, USA). Samples were then rapidly washed 3 times with 2 ml of ice-cold wash buffer (50 mM Tris-HCl pH 7.4, 500 mM NaCl) to separate the bound radioligand from free. Filters were then air-dried for 1 h at 60°C . After drying, filter discs were placed on a flexible 24-well plate and 500 μL of EcoScint-20 scintillant was added to each well. Plates were counted (2 min. per well) in a Trilux MicroBeta^2 2450 scintillation counter (Perkin Elmer, USA). Data were analyzed with GraphPad Prism 5.0 software.[89]

Several values for one entry are separate records, joined by “and”; a condition that tells them apart may be missing. Equal entries are not always repeated. Where two headings read alike, the source gives them in different places.

T1 sequence (P21554 whole entry): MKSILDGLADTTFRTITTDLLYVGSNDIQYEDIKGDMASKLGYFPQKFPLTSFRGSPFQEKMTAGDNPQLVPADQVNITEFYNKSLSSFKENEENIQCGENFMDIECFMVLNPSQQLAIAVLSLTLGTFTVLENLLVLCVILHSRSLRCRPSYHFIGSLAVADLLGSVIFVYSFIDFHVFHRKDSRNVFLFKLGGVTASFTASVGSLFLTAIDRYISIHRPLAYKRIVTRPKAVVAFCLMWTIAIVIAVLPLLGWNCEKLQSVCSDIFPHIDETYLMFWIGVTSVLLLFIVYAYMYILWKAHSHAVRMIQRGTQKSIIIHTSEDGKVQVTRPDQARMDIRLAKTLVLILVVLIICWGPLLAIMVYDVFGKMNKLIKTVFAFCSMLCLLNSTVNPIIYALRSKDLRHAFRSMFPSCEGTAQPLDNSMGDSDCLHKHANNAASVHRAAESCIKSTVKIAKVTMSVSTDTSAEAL

Turning to `CCCCCCC(C)(C)c1cc(O)c2c(c1)OC(C)(C)C1CCC(=O)CC21` (centres unmarked) [nabilone], in data set [1], the pKi was 8.7[56].

With `Cc1c(-c2ccc(O)cc2)n(Cc2ccc(OCCN3CCCCCC3)cc2)c2ccc(O)cc12` [bazedoxifene], the pKi in data set [1] is 6.1[17].

Turning to `CC(C)OC(=O)CCC/C=C\C[C@@H]1[C@@H](/C=C/[C@@H](O)COc2cccc(C(F)(F)F)c2)[C@H](O)C[C@@H]1O` [Compound 9, travoprost], the IC50 in data set [2] (CB1 inhibition IC50 (μM, 95% CI)) is 232 µM; in data set [2] (CHO-K1 membranes, WIN 55,212-2 (3 μM) as stimulating ligand, read-out: CB1 inhibition pIC50 (converted)), 229 µM. Also, the Solubility in data set [3] (10% DMSO >> 40% PEG300 >> 5% Tween-80 >> 45% saline) was ≥ 2.08 mg/mL and ≥ 4.16 mM; in data set [3] (10% DMSO >> 90% (20% SBE-β-CD in saline)), ≥ 2.08 mg/mL and ≥ 4.16 mM; in data set [3] (10% DMSO >> 90% corn oil) it was ≥ 2.08 mg/mL and ≥ 4.16 mM. Also, the “Solubility in DMSO” value in data set [3] (in vitro) was ≥ 41.67 mg/mL and ≥ 83.25 mM. Besides, the intrinsic activity entry in data set [4] is “antagonists”. Besides, the Ki was 3.6 µM in data set [5] (Ki (μM, 95% CI)) and 3.98 µM in data set [5] ([3H]CP-55,940 displacement, membranes of Chem-1 cells expressing human CB1, read-out: pKi ± SEM (converted)).

The Solubility is the dissolved amount per volume that the medium holds.

(Values after paper PMC9585589 (ACS Chemical Neuroscience, 2022).)
